Active and inactive are the calls of the source.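 Rule for the calls: active = a tumor-causing dose value with its tumor site reported for any sex and species group of a rodent or other animal cancer study; inconclusive = only studies judged inadequate by the national testing program; inactive = tested in at least one study, none positive.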 Numbered stars: 1 amine (or outer) side, 2 acyl side, 3 side chain; on linkers, the order of the positions; unused ones are H or OH. Bridge positions count the residues as written; N and C are the ends. Square brackets hold non-standard residues; d marks the D form. Peptide text beside a SMILES is read from it. I, II: the chains in the order shown. Actinocin(9to1) = Cc1c2oc3c(C)ccc(C(=O)[*:1])c3nc-2c(C(=O)[*:2])c(N)c1=O; NMeV = CN[C@H](C(=O)O)C(C)C; Sar = CNCC(=O)O
Experiment: DSSTox (CPDBAS) Carcinogenic Potency Database Summary SingleCellCall Results
Conditions: animal chronic carcinogenicity bioassays, CPDB summary call
Excerpt: The Carcinogenic Potency Database (CPDB) is a unique and widely used international resource of the results of over 6500 chronic, long-term animal cancer tests on over 1500 chemical substances. The CPDB provides easy access to the bioassay literature, with qualitative and quantitative analyses of both positive and negative experiments that have been published over the past 50 years in the general literature and by the National Cancer Institute/National Toxicology Program. The CPDB standardizes the diverse literature of cancer bioassays that vary widely in protocol, histopathological examination and nomenclature, and in the published author's choices of what information to provide in their papers. Results are reported in the CPDB for tests in rats, mice, hamsters, dogs, and nonhuman primates, and are based on the most positive result among all experiments for each sex-species. The DSSTox CPDBAS (all species) file incorporates data from the CPDB Summary Tables for the full list of over 1500 chemical substances tested in at least one species. A summary SingleCellCall, based on experimental bioassay results of one or more species, is provided for the entire DSSTox CPDBAS file (see Source URL).
An assignment of categorical carcinogenic activity based on minimal evidence for or against activity. […] Associated TD50 values and tumor site details for the relevant species/sex experiment supporting this overall CPDBAS SingleSiteCall are provided in the full CPDBAS DSSTox file (see Comment) and the corresponding CPDBAS Species Bioassay in PubChem.

Row | Compound | outcome
1 | O=NN1CC(=O)NC1=O | active
2 | COc1cc(OC)c2c3c(c(=O)oc2c1)CCC3=O | inactive
3 | CC(Oc1ccc(Cl)cc1Cl)C(=O)O (centres undefined) | inactive
4 | OCC(CO)N[C@H]1C[C@](O)(CO)[C@@H](O)[C@H](O)[C@H]1O | inactive
5 | Brc1cc(-c2ccc(Br)c(Br)c2Br)cc(Br)c1Br | inactive; active
6 | CSCCC(N)C(=O)O (centres undefined) | inactive
7 | O=c1ccc2ccccc2o1 | active; inactive
8 | CCCCCCCCCCCCC(=O)COC1=C(O)C(=O)O[C@@H]1[C@@H](O)CO | inactive
9 | Nc1nc(N)c2nc(-c3ccccc3)c(N)nc2n1 | active; inactive
10 | O=NN(CCO)CCO | active; inactive
11 | C[C@H]1CCCCN1N=O | active
12 | O=[N+]([O-])/C=C/c1ccccc1 | inactive
13 | CN(N=O)c1ccc([N+](=O)[O-])cc1 | inactive
14 | CCC(CC)C(=O)NC(N)=O | inactive; active
15 | O.O.O.O.O.O.O=S(=O)([O-])[O-].[Ni+2] | inactive
16 | CCN(CC)C(=S)S[Se](SC(=S)N(CC)CC)(SC(=S)N(CC)CC)SC(=S)N(CC)CC | active; inactive
17 | N[C@@H](CCC(=O)NNc1ccc(CO)cc1)C(=O)O | inactive
18 | CC(=O)NCc1nc(-c2ccc([N+](=O)[O-])o2)no1 | active
19 | NNc1nc(-c2ccc([N+](=O)[O-])cc2)cs1 | active
20 | Cc1cccc2ccccc12 | inactive; active
21 | CC(C)(c1ccc(O)cc1)c1ccc(O)cc1 | inactive; active
22 | Cc1ccc2c(-c3cccc(O)c3)nc(=O)n(C(C)C)c2c1 | inactive
23 | C=CCOc1ccccc1OCC(O)CNC(C)C (centres undefined) | inactive
24 | CN(CCCC(=O)O)N=O | active

Row | Compound | outcome
25 | CC(=O)CN(C)N=O | active
26 | O=C(O)CCl | inactive; active
27 | CN(N=O)C(=O)c1c(N(C)N=O)ncn1C | active
28 | OC[P+](CO)(CO)CO | inactive; active
29 | CC(C)NCC(O)COc1cccc2ccccc12 (centres undefined) | inactive
30 | CC(C)O | inactive
31 | CNc1ncnc2c1ncn2[C@@H]1O[C@H](CO)[C@@H](O)[C@H]1O | inactive; active
32 | CNC(=O)Oc1cccc2c1OC(C)(C)C2 | inactive
33 | Nc1ccccc1N | active; inactive
34 | COc1cc(O)c2c(=O)c3c(OC)cc4c(c3oc2c1OC)C1C=COC1O4 (centres undefined) | active
35 | O=NN1CSCSC1 | inactive
36 | CNCc1ccc(CSCCNC(=NCC(O)c2ccc(O)cc2)NS(C)(=O)=O)o1 (centres undefined) | active; inactive
37 | OCCOCCO | active
38 | IC(I)I | inactive
39 | S=C=NCCCc1ccccc1 | inactive
40 | Cc1cnc2ccc3c(nc(N)n3C)c2n1 | active
41 | CCOc1ccc(NC(C)=O)cc1 | active; inactive
42 | C=CCNN | active
43 | O=[N+]([O-])c1ccc(-c2nc(NCCO)c3ccccc3n2)s1 | active
44 | O=NN1CCCCCCCCCCCC1 | active
45 | O=C(O)/C=C/c1ccc(O)c(O)c1 | active
46 | ON=C1CCCC1 | active; inactive
47 | C=CCc1ccc2c(c1)OCO2 | active
48 | Cc1c2oc3c(C)ccc(C(=O)N[C@@H]4C(=O)N[C@H](C(C)C)C(=O)N5CCC[C@H]5C(=O)N(C)CC(=O)N(C)[C@@H](C(C)C)C(=O)O[C@@H]4C)c3nc-2c(C(=O)N[C@@H]2C(=O)N[C@H](C(C)C)C(=O)N3CCC[C@H]3C(=O)N(C)CC(=O)N(C)[C@@H](C(C)C)C(=O)O[C@@H]2C)c(N)c1=O (I: T[dV]P[Sar][NMeV] / II: T[dV]P[Sar][NMeV]; ester I:1-I:C, II:1-II:C; linker I:N-II:N via Actinocin(9to1)) | active; inactive

Row | Compound | outcome
49 | COc1cc(/C=C/C(=O)O[C@H]2CC[C@]34C[C@]35CC[C@]3(C)[C@@H]([C@H](C)CCC=C(C)C)CC[C@@]3(C)[C@@H]5CC[C@H]4C2(C)C)ccc1O | inactive
50 | NNC(=O)c1ccncc1 | active; inactive
51 | NC(=O)N(CCF)N=O | active; inactive
52 | Cc1ccc(C)c(C)c1 | active
53 | CN1C(C(=O)Nc2ccccn2)=C(O)c2sc(Cl)cc2S1(=O)=O | inactive
54 | CC1CN(N=O)CC(C)N1N=O (centres undefined) | active
55 | Cc1cc(C)c(N)cc1C | active
56 | Cc1ccc2c(c1)C(N1CCN(C)CC1)=Nc1ccccc1S2 | inactive
57 | Nc1nc(=S)c2ncn([C@H]3C[C@H](O)[C@@H](CO)O3)c2[nH]1 | active
58 | C/[N+]([O-])=N/CO[C@@H]1O[C@H](CO)[C@@H](O)[C@H](O)[C@H]1O | active
59 | Nc1nc(N)nc(-c2ccc([N+](=O)[O-])o2)n1 | active
60 | C=C1C(CCl)(CCl)C2(Cl)C(Cl)C(Cl)C1(Cl)C2(Cl)Cl (centres undefined) | active; inactive
61 | Cn1cnc([N+](=O)[O-])c1Sc1ncnc2nc[nH]c12 | active
62 | CCOP(=S)(OCC)SC1OCCOC1SP(=S)(OCC)OCC (centres undefined) | inactive
63 | Cc1cc(=O)[nH]c(=S)[nH]1 | active
64 | O[C@H]([C@H](O)[C@@H](O)CBr)[C@H](O)CBr | active; inactive
65 | OCN(CO)c1nc(N(CO)CO)nc(N(CO)CO)n1 | active
66 | CC(=O)NNC(=O)c1ccncc1 | active
67 | O=C(O)c1ccncc1 | inactive
68 | Cc1cccc(OCC(O)CNC(C)(C)C)c1C (centres undefined) | inactive
69 | CC(CN1CC(=O)NC(=O)C1)N1CC(=O)NC(=O)C1 (centres undefined) | active
70 | Nc1ccc2oc3ccccc3c2c1 | active
71 | Nc1cc([N+](=O)[O-])ccc1O | active
72 | COC(C(=O)O)c1ccccc1 (centres undefined) | inactive; active

Row | Compound | outcome
73 | [N-]=[N+]=[N-] | inactive; active
74 | C=Cc1ccccc1 | active
75 | O=[N+]([O-])c1ccc2c(c1)Cc1ccccc1-2 | active
76 | CC=O | active; inactive
77 | CN(CCCC(O)c1cccnc1)N=O (centres undefined) | active
78 | COC(=O)C(c1ccccc1)C1CCCCN1N=O (centres undefined) | inactive
79 | C/C=C(\C)C(=O)O[C@@H]1CCN2CC=C(COC(=O)C(O)(C(C)C)C(C)O)[C@H]12 (some centres undefined) | active
80 | O=C(O)c1ccccc1-c1c2cc(I)c(=O)c(I)c-2oc2c(I)c(O)c(I)cc12 | inactive
81 | CC(=O)[O][Hg][c]1ccccc1 | inactive
82 | CNC(=S)NC | inactive
83 | COc1ccc(N)c(OC)c1 | inactive
84 | CN(C)C(=S)S | inactive
85 | O=CNNc1nc(-c2ccc([N+](=O)[O-])o2)cs1 | active
86 | O=CC1CO1 (centres undefined) | inactive
87 | COc1cc(N)ccc1N=Nc1ccccc1 | inactive; active
88 | CCn1cc(C(=O)O)c(=O)c2ccc(C)nc21 | active
89 | CCOP(=S)(OCC)Oc1ccc([N+](=O)[O-])cc1 | inactive; active
90 | N=c1ccn2c(n1)O[C@H]1[C@H](O)[C@@H](CO)O[C@H]12 | inactive
91 | CC(Oc1c(Cl)cccc1Cl)C1=NCCN1 (centres undefined) | inactive
92 | Oc1ccc2c(c1)OCO2 | active; inactive
93 | CC1CN(N=O)C(=O)NC1=O (centres undefined) | inactive
94 | C=C(Cl)Cl | active
95 | Nc1ccc2c(c1)oc1ccccc12 | active
96 | CCCCCCOc1cc(C)c(O)c(C)c1C | inactive; active

Row | Compound | outcome
97 | CCOP(=O)=O.CCOP(=O)=O.CCOP(=O)=O.[Al+3] | active; inactive
98 | Nc1nc(N)nc(-c2ccccc2)n1 | inactive; active
99 | CC(C)N=[N+]([O-])C(C)C | active
100 | CC#N | inactive
101 | CN(C)CCN(Cc1cccs1)c1ccccc1 | inactive
102 | CC(=O)Nc1cccc2c1-c1ccccc1C2 | inactive
103 | Cc1cc(N=Nc2ccccc2C)ccc1N | active
104 | C=CCO | inactive; active
105 | C=CBr | active
106 | [O]=[Nb](=[O])[OH] | inactive
107 | Nc1c(Cl)cc(Cl)cc1Cl | active
108 | Nc1ncn([C@@H]2O[C@H](CO)[C@@H](O)[C@H]2O)c(=O)n1 | active
109 | O=[N+]([O-])O | inactive; active
110 | CCCCNC(=O)N(CCCC)N=O | active
111 | O=S1(=O)N=C(O)c2ccccc21 | inactive
112 | O=C1CCCO1 | inactive
113 | Oc1ccc(-c2ccccc2)cc1 | inactive; active
114 | COC(=O)C1=C(C)NC(C)=C(C(=O)OCCN2CCN(C(c3ccccc3)c3ccccc3)CC2)C1c1cccc([N+](=O)[O-])c1 (centres undefined) | inactive
115 | O=[N+]([O-])c1ccc2c3c(cccc13)CC2 | active
116 | C=C/C1=C/[C@H](C)[C@](C)(OC(C)=O)C(=O)OCC2=CC[N+]3(C)CC[C@@H](OC1=O)C23[O-] (some centres undefined) | active; inactive
117 | O=C1NCCN1 | inactive
118 | N[C@@H](CS)C(=O)O | inactive
119 | CN[C@H]1CCc2cc(OC)c(OC)c(OC)c2-c2ccc(OC)c(=O)cc21 | inactive
